Consider four compounds from ChEMBL document CHEMBL4184204, “Fusarithioamide B, a new benzamide derivative from the endophytic fungus Fusarium chlamydosporium with potent cytotoxic and antimicrobial activities” (Bioorg Med Chem, 2018).

Assay [1] deals with Candida albicans. The assay is described as follows: Antifungal activity against Candida albicans AUMC 418 assessed as diameter of inhibition zone after 48 hrs by agar disc diffusion method. Type of assay: functional.
The test system of a further assay is HCT-116. The assay is described as follows: Cytotoxicity against human HCT116 cells after 48 hrs by neutral red dye based assay. The assay is classed as functional, cell-based. The settings on record: HCT-116, 48 h.
For assay [2], the system named is Geotrichum candidum. The assay is described as follows: Antifungal activity against Geotrichum candidum AUMC 226 by microdilution method. Type of assay: functional.
Assay [3] deals with Staphylococcus aureus. Description: Antibacterial activity against Staphylococcus aureus AUMC B-54 by microdilution method. The assay is classed as functional.
For assay [4], the system named is Bacillus cereus. The assay is described as follows: Antibacterial activity against Bacillus cereus AUMC B-5 by microdilution method. The assay is classed as functional.
Another assay relates to BT-549. The assay is described as follows: Cytotoxicity against human BT549 cells after 48 hrs by neutral red dye based assay. Type of assay: functional, cell-based. The settings on record: BT-549, 48 h.
The next assay relates to SK-OV-3. Description: Cytotoxicity against human SKOV3 cells after 48 hrs by neutral red dye based assay. Type of assay: functional, cell-based. As to conditions: SK-OV-3, 48 h.
Assay [5] deals with Bacillus cereus. Description: Antibacterial activity against Bacillus cereus AUMC B-5 assessed as diameter of inhibition zone after 24 hrs by agar disc diffusion method. The assay is classed as functional.
Assay [6] relates to Trichophyton rubrum. Description: Antifungal activity against Trichophyton rubrum AUMC 1804 assessed as diameter of inhibition zone after 48 hrs by agar disc diffusion method. The assay is classed as functional.
For a further assay, the system named is KB. The assay is described as follows: Cytotoxicity against human KB cells after 48 hrs by neutral red dye based assay. Type of assay: functional, cell-based.
Assay [7] concerns Escherichia coli. Description: Antibacterial activity against Escherichia coli AUMC B-53 by microdilution method. The assay is classed as functional.
In assay [8] the test system is Serratia marcescens. Description: Antibacterial activity against Serratia marcescens AUMC B-55 assessed as diameter of inhibition zone after 24 hrs by agar disc diffusion method. Type of assay: functional.
Assay [9] relates to Staphylococcus aureus. Description: Antibacterial activity against Staphylococcus aureus AUMC B-54 assessed as diameter of inhibition zone after 24 hrs by agar disc diffusion method. Type of assay: functional. (In agar diffusion tests the substance spreads into inoculated agar from a disc or well.)
The test system of assay [10] is Serratia marcescens. Description: Antibacterial activity against Serratia marcescens AUMC B-55 by microdilution method. Type of assay: functional.
Assay [11] concerns Pseudomonas aeruginosa. The assay is described as follows: Antibacterial activity against Pseudomonas aeruginosa AUMC B-73 by microdilution method. Type of assay: functional.
In assay [12] the test system is Trichophyton rubrum. The assay is described as follows: Antifungal activity against Trichophyton rubrum AUMC 1804 by microdilution method. Type of assay: functional. A general note: Dilution methods test growth across graded concentrations, often in twofold steps.
For the next assay, the system named is MCF7. The assay is described as follows: Cytotoxicity against human MCF7 cells after 48 hrs by neutral red dye based assay. The assay is classed as functional, cell-based. The settings on record: MCF7, 48 h.
For another assay, the system named is SK-MEL. The assay is described as follows: Cytotoxicity against human SK-MEL cells after 48 hrs by neutral red dye based assay. The assay is classed as functional, cell-based.
Assay [13] relates to Pseudomonas aeruginosa. Description: Antibacterial activity against Pseudomonas aeruginosa AUMC B-73 assessed as diameter of inhibition zone after 24 hrs by agar disc diffusion method. The assay is classed as functional.
The test system of assay [14] is Candida albicans. Description: Antifungal activity against Candida albicans AUMC 418 by microdilution method. Type of assay: functional.
Assay [15] deals with Escherichia coli. Description: Antibacterial activity against Escherichia coli AUMC B-53 assessed as diameter of inhibition zone after 24 hrs by agar disc diffusion method. The assay is classed as functional.
The subject of assay [16] is Geotrichum candidum. The assay is described as follows: Antifungal activity against Geotrichum candidum AUMC 226 assessed as diameter of inhibition zone after 48 hrs by agar disc diffusion method. Type of assay: functional.
For assay [17], the system named is Bacillus cereus. The assay is described as follows: Antibacterial activity against Bacillus cereus AUMC B-5 assessed as diameter of inhibition zone at 10 ug/disc after 24 hrs by agar disc diffusion method. The assay is classed as functional. The settings on record: AUMC B-5, 24 h, read-out: DIZ.
Assay [18] has as its system Escherichia coli. The assay is described as follows: Antibacterial activity against Escherichia coli AUMC B-53 assessed as diameter of inhibition zone at 10 ug/disc after 24 hrs by agar disc diffusion method. As to conditions: AUMC B-53, 24 h, read-out: DIZ.
For assay [19], the system named is Pseudomonas aeruginosa. The assay is described as follows: Antibacterial activity against Pseudomonas aeruginosa AUMC B-73 assessed as diameter of inhibition zone at 10 ug/disc after 24 hrs by agar disc diffusion method. As to conditions: AUMC B-73, 24 h, read-out: DIZ.
Assay [20] has as its system Serratia marcescens. Description: Antibacterial activity against Serratia marcescens AUMC B-55 assessed as diameter of inhibition zone at 10 ug/disc after 24 hrs by agar disc diffusion method. The assay is classed as functional. As to conditions: AUMC B-55, 24 h, read-out: DIZ.
Assay [21] relates to Staphylococcus aureus. Description: Antibacterial activity against Staphylococcus aureus AUMC B-54 assessed as diameter of inhibition zone at 10 ug/disc after 24 hrs by agar disc diffusion method. As to conditions: AUMC B-54, 24 h, read-out: DIZ.
For assay [22], the system named is Candida albicans. The assay is described as follows: Antifungal activity against Candida albicans AUMC 418 assessed as diameter of inhibition zone at 5 ug/disc after 48 hrs by agar disc diffusion method. The settings on record: AUMC 418, 48 h, read-out: DIZ. The assay is classed as functional.
Assay [23] concerns Trichophyton rubrum. The assay is described as follows: Antifungal activity against Trichophyton rubrum AUMC 1804 assessed as diameter of inhibition zone at 5 ug/disc after 48 hrs by agar disc diffusion method. The assay is classed as functional. The settings on record: AUMC 1804, 48 h, read-out: DIZ.
In assay [24] the test system is Geotrichum candidum. Description: Antifungal activity against Geotrichum candidum AUMC 226 assessed as diameter of inhibition zone at 5 ug/disc after 48 hrs by agar disc diffusion method. Type of assay: functional. The settings on record: AUMC 226, 48 h, read-out: DIZ.

Converted amounts (≈) assume the structure as drawn.

With `CC1NC(=O)C(C)(CC(=O)O)NC(CN)OC(CCS)NC(=O)c2ccccc2NC1=O` (stereo not given), the “diameter of the inhibition zone (DIZ)” value worked out at 14.5 mm in the assay with Candida albicans [1]; 23 mm in the assay on Bacillus cereus [5]; 40.3 mm in the assay on Trichophyton rubrum [6]; 4.5 mm with Serratia marcescens [8]; 17.4 mm with Staphylococcus aureus [9]; 7.2 mm with Pseudomonas aeruginosa [13]. In addition, the “diameter of the inhibition zone (DIZ)” value with Escherichia coli [15] stood at 25.1 mm; in the assay with Geotrichum candidum [16], 28.9 mm. In addition, the IC50 with HCT-116 was found to be 590 nM; with BT-549, 90 nM; in the assay with SK-OV-3, 1230 nM; in the assay with KB it was 6900 nM; in the assay on MCF7, 210 nM; with SK-MEL, 11200 nM. The MIC in the assay on Geotrichum candidum [2] came out at 6.9 µg/mL (≈ 14.8 µM); against Staphylococcus aureus [3], 3.1 µg/mL (≈ 6.63 µM); in the assay on Bacillus cereus [4], 2.5 µg/mL (≈ 5.35 µM); in the assay on Escherichia coli [7] it was 3.7 µg/mL (≈ 7.91 µM); in the assay on Serratia marcescens [10], 92.1 µg/mL (≈ 197 µM); against Pseudomonas aeruginosa [11] it was 68.4 µg/mL (≈ 146 µM). In addition, the MIC against Trichophyton rubrum [12] amounted to 5.2 µg/mL (≈ 11.1 µM); in the assay with Candida albicans [14], 1.9 µg/mL (≈ 4.06 µM).

For the compound `O=C(O)c1cn(C2CC2)c2cc(N3CCNCC3)c(F)cc2c1=O` [CIPROFLOXACIN], the MIC in the assay with Bacillus cereus [4] was determined as 2.9 µg/mL (≈ 8.75 µM); in the assay with Serratia marcescens [10] it was 9.1 µg/mL (≈ 27.5 µM). Besides, the zone of inhibition at 10 µg/disc in the assay with Bacillus cereus [17] is 21.2 mm; in the assay on Escherichia coli [18] it was 25.6 mm; in the assay on Pseudomonas aeruginosa [19] it was 14.8 mm; in the assay with Serratia marcescens [20], 30.1 mm; in the assay with Staphylococcus aureus [21], 15.3 mm.

`Clc1ccccc1C(c1ccccc1)(c1ccccc1)n1ccnc1` [CLOTRIMAZOLE]: the MIC with Geotrichum candidum [2] stood at 4.9 µg/mL (≈ 14.2 µM); against Trichophyton rubrum [12] it was 8.1 µg/mL (≈ 23.5 µM); with Candida albicans [14], 2.8 µg/mL (≈ 8.12 µM). Further, the zone of inhibition at 5 µg/disc in the assay on Candida albicans [22] is 17.9 mm; in the assay with Trichophyton rubrum [23] it was 15.5 mm; in the assay with Geotrichum candidum [24] it was 20.1 mm.

As to `COc1cccc2c1C(=O)c1c(O)c3c(c(O)c1C2=O)C[C@@](O)(C(=O)CO)C[C@@H]3O[C@H]1C[C@H](N)[C@H](O)[C@H](C)O1` [DOXORUBICIN], the IC50 in the assay on HCT-116 was determined as 240 nM; with BT-549 it was 45 nM; with SK-OV-3, 321 nM; in the assay on KB, 24 nM; in the assay on SK-MEL, 159 nM.

Broadly, the IC50 is the point on the concentration scale where inhibition reaches its midpoint. High values mean weaker potency in that assay, low ones greater potency in that assay. Broadly, the MIC is the lowest concentration that inhibits growth of the organism. A higher MIC goes with a less susceptible organism.
